According to PMC10141580, “Cyclic Dichalcogenides Extend the Reach of Bioreductive Prodrugs to Harness Thiol/Disulfide Oxidoreductases: Applications to seco-Duocarmycins Targeting the Thioredoxin System” (ACS Central Science, 2023):
Where two headings read alike, the source gives them in different places.

System: panel of 140 standard cancer cell lines
Assay: ProliFiler-140 cancer cell line screen (CellTiterGlo, 72 h)
Assay type: cell-based
Conditions: read-out: IC50 [M] (ProliFiler-140)
Method: Incubations were performed for 72 h before automated viability readout with CellTiterGlo (Figure 8).
End of Figure S11 (part 5 of 5): ProliFiler-140 cancer cell line screening for cytotoxicity of the prodrugs.
8-data-point dose response curves from CellTiter-Glo® viability readout.
ProliFiler-140 cell line panel part V

IC50 (MCAS (Ovary), listed as Dox): 1.13e-07 M | IC50 (MCAS (Ovary)): 1.1e-07 M | IC50 (MDA MB 435 (Skin), listed as Dox): 4.83e-07 M | IC50 (MDA-MB-468 (Breast), listed as Dox): 4.71e-08 M | IC50 (MEC-1 (Blood), listed as Dox): 7.33e-08 M | IC50 (MKN-1 (Stomach), listed as Dox): 5.25e-08 M | IC50 (MOLM-13 (Blood), listed as Dox): 2.12e-08 M | IC50 (MV4-11 (Blood), listed as Dox): 4.26e-09 M | IC50 (Mia PaCA 2 (Pancreas), listed as Dox): 7.4e-08 M | IC50 (NCI-H82 (Lung), listed as Dox): 6.24e-07 M | IC50 (NCI-H292 (Lung), listed as Dox): 7.17e-08 M | IC50 (NCI-H838 (Lung), listed as Dox): 1.51e-07 M | IC50 (NCI-H1563 (Lung), listed as Dox): 5.43e-07 M | IC50 (NCI-H1573 (Lung), listed as Dox): 2.97e-06 M | IC50 (NCI-H1703 (Lung), listed as Dox): 9.24e-08 M | IC50 (NCI-H1838 (Lung), listed as Dox): 2.52e-07 M | IC50 (NCI-H2110 (Lung), listed as Dox): 3.55e-08 M | IC50 (NCI-H2110, NCI-H2110 (Lung)): 3.6e-08 M | IC50 (NCI-H2286 (Lung), listed as Dox): 4.39e-08 M | IC50 (OCI-AML5 (Blood), listed as Dox): 3.09e-08 M | IC50 (OCI-LY19 (Blood), listed as Dox): 5.5e-09 M | IC50 (OPM-2 (Blood), listed as Dox): 2.4e-07 M | IC50 (OV56, OV56 (Ovary)): 2.02e-07 M | IC50 (OVCAR-3 (Ovary), listed as Dox): 3.73e-07 M | IC50 (OVK18 (Ovary), listed as Dox): 3.4e-08 M | IC50 (OVK18, OVK18 (Ovary)): 3.42e-08 M | IC50 (P31/FUJ (Blood), listed as Dox): 1.02e-07 M | IC50 (PANC-1 (Pancreas), listed as Dox): 8.01e-07 M | IC50 (PC3 (Prostate), listed as Dox): 7.4e-07 M | IC50 (PC3 (Prostate)): 7.38e-07 M | IC50 (PC-9 (Lung), listed as Dox): 1.92e-07 M | IC50 (PC-9 (Lung)): 1.9e-07 M | IC50 (RERF-LC-Ad2, RERF-LC-Ad2 (Lung)): 4.6e-07 M | IC50 (RERF-LC-MS (Lung), listed as Dox): 1.7e-07 M | IC50 (RERF-LC-MS (Lung)): 1.74e-07 M | IC50 (RKO (Colon), listed as Dox): 9.9e-08 M | IC50 (RKO (Colon)): 9.86e-08 M | IC50 (RPMI 8226 (Blood), listed as Dox): 8.8e-08 M | IC50 (SCH (Stomach), listed as Dox): 1.38e-07 M | IC50 (SCH (Stomach)): 1.4e-07 M | IC50 (SK-BR-3 (Breast), listed as Dox): 1.28e-07 M | IC50 (SK-LU-1 (Lung), listed as Dox): 2.67e-07 M | IC50 (SK-MEL-3 (Skin), listed as Dox): 5.12e-07 M | IC50 (SK-N-FI (Brain), listed as Dox): 1.4e-06 M | IC50 (SK-N-MC (Brain), listed as Dox): 1.47e-08 M | IC50 (SK-N-SH (Brain), listed as Dox): 9.82e-08 M | IC50 (SK-OV3 (Ovary), listed as Dox): 1.8e-07 M | IC50 (SNU-1 (Stomach), listed as Dox): 5.88e-08 M | IC50 (SNU-216, SNU-216 (Stomach)): 3.9e-07 M | IC50 (SNU-840, SNU840 (Ovary)): 1.33e-07 M | IC50 (SU-DHL-5 (Blood), listed as Dox): 9.15e-09 M | IC50 (SW-1783 (Brain), listed as Dox): 3e-07 M | IC50 (T84 (Colon), listed as Dox): 1.4e-06 M | IC50 (T84 (Colon)): 1.35e-06 M | IC50 (T-47D (Breast), listed as Dox): 4.35e-07 M | IC50 (U87MG (Brain), listed as Dox): 1.62e-07 M | IC50 (U118MG (Brain), listed as Dox): 2.6e-07 M | IC50 (U251MG (Brain), listed as Dox): 7.84e-07 M
SMILES: COc1cccc2c1C(=O)c1c(O)c3c(c(O)c1C2=O)C[C@@](O)(C(=O)CO)C[C@@H]3O[C@H]1C[C@H](N)[C@H](O)[C@H](C)O1 [doxorubicin, reference compound]
